According to EPA's ToxValDB 9.5:

Test system: Rattus norvegicus
Details: short-term, duration: 28 days, oral, gavage, Sprague-Dawley

O=C(O)C(F)(F)C(F)(F)C(F)(F)C(F)(F)C(F)(F)C(F)(F)C(F)(F)C(F)(F)F [Perfluorononanoic acid]
LOEL (F, Clinical chemistry_Alanine aminotransferase): 3.12 mg/kg-day | LOEL (F, Clinical chemistry_Albumin): 1.56 mg/kg-day | LOEL (F, Clinical chemistry_Albumin/globulin ratio): 1.56 mg/kg-day | LOEL (F, Clinical chemistry_Alkaline phosphatase): 3.12 mg/kg-day | NOEL (F, Clinical chemistry_Aspartate aminotransferase): 25 mg/kg-day | NOEL (F, Clinical chemistry_Cholesterol): 25 mg/kg-day | NOEL (F, Clinical chemistry_Creatinine kinase): 25 mg/kg-day | LOEL (F, Clinical chemistry_Direct bilirubin): 6.25 mg/kg-day | LOEL (F, Clinical chemistry_Free thyroxine): 3.12 mg/kg-day | LOEL (F, Clinical chemistry_Globulin): 1.56 mg/kg-day | NOEL (F, Clinical chemistry_Indirect bilirubin): 25 mg/kg-day | LOEL (F, Clinical chemistry_Sorbitol dehydrogenase): 1.56 mg/kg-day | LOEL (F, Clinical chemistry_Testosterone): 1.56 mg/kg-day | NOEL (F, Clinical chemistry_Thyroid stimulating hormone): 25 mg/kg-day | LOEL (F, Clinical chemistry_Total bile acids): 3.12 mg/kg-day | NOEL (F, Clinical chemistry_Total bilirubin): 25 mg/kg-day | LOEL (F, Clinical chemistry_Total protein): 1.56 mg/kg-day | LOEL (F, Clinical chemistry_Total thyroxine): 3.12 mg/kg-day | NOEL (F, Clinical chemistry_Total triiodothyronine): 25 mg/kg-day | NOEL (F, Clinical chemistry_Triglycerides): 25 mg/kg-day | LOEL (F, Gene expression_Acox1): 1.56 mg/kg-day | LOEL (F, Gene expression_Cyp2b1): 1.56 mg/kg-day | LOEL (F, Gene expression_Cyp2b2): 1.56 mg/kg-day | LOEL (F, Gene expression_Cyp4a1): 1.56 mg/kg-day | NOEL (F, Hematology_Erythrocytes): 25 mg/kg-day | NOEL (F, Hematology_Hematocrit): 25 mg/kg-day | NOEL (F, Hematology_Hemoglobin): 25 mg/kg-day | NOEL (F, Hematology_Mean corpuscular hemoglobin concentration): 25 mg/kg-day | NOEL (F, Hematology_Mean corpuscular volume): 25 mg/kg-day | NOEL (F, Hematology_Platelets): 25 mg/kg-day | NOEL (F, Hematology_Reticulocytes): 25 mg/kg-day | LOEL (F, Nonneoplastic effects_Bone marrow - Hypocellularity): 12.5 mg/kg-day | LOEL (F, Nonneoplastic effects_Forestomach - Epithelium, hyperplasia): 12.5 mg/kg-day | NOEL (F, Nonneoplastic effects_Kidney - Nephropathy, chronic progressive): 25 mg/kg-day | LOEL (F, Nonneoplastic effects_Liver - Hepatocyte, Necrosis): 12.5 mg/kg-day | LOEL (F, Nonneoplastic effects_Liver - Hepatocyte, cytoplasmic alteration): 1.56 mg/kg-day | LOEL (F, Nonneoplastic effects_Liver - Hepatocyte, hypertrophy): 6.25 mg/kg-day | NOEL (F, Nonneoplastic effects_Liver - Hepatocyte, vacuolization cytoplasmic): 25 mg/kg-day | LOEL (F, Nonneoplastic effects_Lymph nodes - Mandibular, atrophy): 12.5 mg/kg-day | LOEL (F, Nonneoplastic effects_Lymph nodes - Mesenteric, atrophy): 12.5 mg/kg-day | LOEL (F, Nonneoplastic effects_Nose - Olfactory epithelium, degeneration): 25 mg/kg-day | NOEL (F, Nonneoplastic effects_Nose - Olfactory epithelium, hyperplasia): 25 mg/kg-day | NOEL (F, Nonneoplastic effects_Nose - Olfactory epithelium, inflammation, suppurative): 25 mg/kg-day | NOEL (F, Nonneoplastic effects_Nose - Respiratory epithelium, hyperplasia): 25 mg/kg-day | NOEL (F, Nonneoplastic effects_Nose - Respiratory epithelium, inflammation, chronic active): 25 mg/kg-day | LOEL (F, Nonneoplastic effects_Spleen - Atrophy): 12.5 mg/kg-day | NOEL (F, Nonneoplastic effects_Spleen - Extramedullary hematopoiesis, increased): 25 mg/kg-day | LOEL (F, Nonneoplastic effects_Thymus - Atrophy): 12.5 mg/kg-day | NOEL (F, Nonneoplastic effects_Thymus - Lymphocyte, apoptosis): 25 mg/kg-day | NOEL (F, Nonneoplastic effects_Thyroid gland - Follicular cell hypertrophy): 25 mg/kg-day | LOEL (F, Organ weights_Liver - Absolute): 1.56 mg/kg-day | LOEL (F, Organ weights_Liver - Relative): 1.56 mg/kg-day | NOEL (F, Organ weights_R. adrenal gland - Absolute): 25 mg/kg-day | NOEL (F, Organ weights_R. adrenal gland - Relative): 25 mg/kg-day | LOEL (F, Organ weights_R. kidney - Absolute): 1.56 mg/kg-day | LOEL (F, Organ weights_R. kidney - Relative): 1.56 mg/kg-day | LOEL (F, Organ weights_Spleen - Absolute): 3.12 mg/kg-day | LOEL (F, Organ weights_Spleen - Relative): 6.25 mg/kg-day | NOEL (F, Organ weights_Thymus - Absolute): 25 mg/kg-day | NOEL (F, Organ weights_Thymus - Relative): 25 mg/kg-day | NOEL (F, Organ weights_Thyroid gland - Absolute): 25 mg/kg-day | NOEL (F, Organ weights_Thyroid gland - Relative): 25 mg/kg-day | LOEL (F, body weight): 6.25 mg/kg-day | LOEL (M, Clinical chemistry_Alanine aminotransferase): 1.25 mg/kg-day | LOEL (M, Clinical chemistry_Albumin): 1.25 mg/kg-day | LOEL (M, Clinical chemistry_Albumin/globulin ratio): 0.625 mg/kg-day | LOEL (M, Clinical chemistry_Alkaline phosphatase): 1.25 mg/kg-day | LOEL (M, Clinical chemistry_Aspartate aminotransferase): 1.25 mg/kg-day | LOEL (M, Clinical chemistry_Cholesterol): 0.625 mg/kg-day | NOEL (M, Clinical chemistry_Creatinine kinase): 10 mg/kg-day | LOEL (M, Clinical chemistry_Direct bilirubin): 1.25 mg/kg-day | LOEL (M, Clinical chemistry_Free thyroxine): 0.625 mg/kg-day | LOEL (M, Clinical chemistry_Globulin): 0.625 mg/kg-day | LOEL (M, Clinical chemistry_Indirect bilirubin): 1.25 mg/kg-day | LOEL (M, Clinical chemistry_Sorbitol dehydrogenase): 1.25 mg/kg-day | LOEL (M, Clinical chemistry_Testosterone): 2.5 mg/kg-day | LOEL (M, Clinical chemistry_Thyroid stimulating hormone): 2.5 mg/kg-day
